Holding throughout (experiment): DTP human tumour cell line panel, 48 h
Experiment [1] has as its system SK-MEL-5 melanoma.
Experiment [2] concerns OVCAR-3 ovarian.
In experiment [3] the test system is K-562 leukemia.
Experiment [4] concerns KM20L2 colon.
The subject of experiment [5] is IGROV1 ovarian.
For experiment [6], the system named is UACC-62 melanoma.
Experiment [7] has as its system NCI-H522 lung.
Experiment [8] deals with SN12C renal.
In experiment [9] the test system is SF-268 CNS.
The subject of experiment [10] is CCRF-CEM leukemia.
In experiment [11] the test system is NCI-H460 lung.
Experiment [12] deals with SW-620 colon.
Experiment [13] concerns RXF 393 renal.
In experiment [14] the test system is SR leukemia.
In experiment [15] the test system is SF-295 CNS.
Experiment [16] has as its system PC-3 prostate.
The test system of experiment [17] is DU-145 prostate.
The test system of experiment [18] is HS 578T breast.
Experiment [19] has as its system MDA-MB-231 breast.
Experiment [20] has as its system MDA-MB-435.

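Each compound was tested at five concentrations against cells in 96-well plates for 48 hours. At the TGI there is no net growth.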

Usually TGI stands for the concentration giving total growth inhibition.

`CN1CCc2ccccc2C(C(=O)c2ccc3c(c2)OCO3)C1=O` (stereo unspecified): the TGI in [1], in experiment [2], in [3], in [4], in experiment [5] and in experiment [6] was above 100 µM throughout. Also, the TGI in experiment [7], in experiment [8], in experiment [9], in experiment [10], in [11] and in experiment [12] was above 100 µM in each case. Also, in [13], the TGI was above 100 µM.
Take `CCCCOC/N=C(/N)NC#N`: the TGI in experiment [1], in [2], in experiment [3], in experiment [4], in experiment [5] and in experiment [6] was above 100 µM each time. Moreover, the TGI was above 100 µM in experiment [7]; above 100 µM in experiment [8]; 63.1 µM in [14]; above 100 µM in experiment [15]; above 100 µM in experiment [9]; above 100 µM in [11]. In addition, the TGI is 34.3 µM in [12] and above 100 µM in experiment [13].
As for `Cc1ccc(C(=O)Oc2ccccc2)cc1N=NN(C)C`, the TGI in experiment [1], in experiment [2], in experiment [3], in experiment [4], in [5] and in experiment [6] was above 100 µM each time. Further, the TGI in experiment [16], in experiment [7], in [8], in experiment [17], in experiment [18] and in experiment [14] was above 100 µM in each case. Further, the TGI in [15], in [9], in experiment [10], in experiment [19], in experiment [20] and in [11] was above 100 µM in each case. In experiment [12], the TGI was above 100 µM.
Turning to `CCCNCCCCC(NC(C)=O)C(=O)NCc1ccccc1` (stereo unspecified), the TGI in experiment [1], in experiment [2], in experiment [3], in experiment [4], in experiment [5] and in [6] was above 100 µM in each case. For the same compound, the TGI in [7], in experiment [8], in experiment [15], in experiment [9], in [10] and in experiment [11] was above 100 µM each time. Also, the TGI in experiment [12] and in [13] was above 100 µM each time.
As for `COc1cc([C@@H]2c3cc4c(cc3[C@@H](NCc3cccc(C#N)c3)C3COC(=O)[C@@H]32)OCO4)cc(OC)c1O` (stereo partly specified), the TGI amounted to 13 µM in experiment [1]; 8.47 µM in experiment [2]; 25.4 µM in [3]; 4.63 µM in [4]; 15.2 µM in experiment [5]; 2.93 µM in experiment [6]. In addition, the TGI in [7] was 3.56 µM; in [8], 2.93 µM; in experiment [15] it was 7 µM; in [9], above 100 µM; in experiment [10], above 100 µM; in [11] it was 2.09 µM. In addition, the TGI stood at 11.1 µM in experiment [12] and 19.6 µM in experiment [13].
Take `CCCc1cc(OC(=O)c2c(O)cc(OC)cc2CCC)cc(O)c1C(=O)O`: the TGI in experiment [2] is 61.2 µM; in experiment [3] it was above 100 µM; in experiment [4], above 100 µM; in [5], above 100 µM; in [6], 78.1 µM; in experiment [7] it was 43.9 µM. Further, the concentration for total growth inhibition (TGI) in [10] is 95.4 µM; in experiment [11], 76.6 µM; in experiment [12] it was above 100 µM; in [13], 53.2 µM.
Turning to `Cc1ccc(-c2cc(-c3ccccc3)c(C#N)c(=O)[nH]2)cc1`, the TGI in [1], in experiment [2], in experiment [3], in experiment [4], in [5] and in [6] was above 100 µM throughout. The TGI in [7], in [8], in [14], in experiment [15], in experiment [9] and in experiment [10] was above 100 µM each time. In addition, the TGI in experiment [11], in experiment [12] and in [13] was above 100 µM each time.
With `O=c1oc2c3ccc4ccccc4c3n(CCN3CCCCC3)c2c2ccccc12`, the TGI is above 100 µM in [1]; 54.1 µM in experiment [2]; above 100 µM in [3]; above 100 µM in experiment [4]; above 100 µM in [5]; above 78.8 µM in experiment [6]. Also, the TGI in experiment [7] was above 100 µM; in [8] it was above 100 µM; in [14], above 100 µM; in experiment [15] it was 39.3 µM; in experiment [9], above 68.7 µM; in experiment [10] it was above 91.7 µM. The total growth inhibition concentration (TGI) in experiment [11] is above 43.9 µM; in experiment [12] it was above 100 µM; in [13] it was 29.3 µM.
For `CCCCCCCCC(O)c1ccc(/C=C\C(O)CCCC(=O)O)s1` (stereo unspecified), the TGI in [1], in [2], in experiment [3], in experiment [4], in [5] and in experiment [6] was above 100 µM each time. The TGI in experiment [7], in [8], in experiment [14], in [15], in [9] and in experiment [10] was above 100 µM each time. Besides, the total growth inhibition concentration (TGI) in experiment [11], in [12] and in [13] was above 100 µM each time.
As for `C=C1C2=C(CCCC2)C(=O)OC12CCCCC2`, the TGI in experiment [1], in experiment [2], in experiment [3], in [4], in experiment [5] and in [6] was above 100 µM in each case. Besides, the TGI in experiment [7], in experiment [8], in experiment [14], in experiment [15], in [9] and in [10] was above 100 µM throughout. In addition, the TGI in experiment [11], in experiment [12] and in experiment [13] was above 100 µM each time.
For `CCOC(=O)C1=C(OC(OCC)C(CC)[Se]c2ccccc2)CCC1` (stereo unspecified), the TGI was 31.2 µM in experiment [1]; 69.3 µM in [2]; above 100 µM in [3]; above 100 µM in experiment [4]; above 100 µM in experiment [5]; 81.1 µM in experiment [6]. Also, the TGI turned out to be 29.1 µM in [7]; 47.2 µM in [8]; 83.4 µM in experiment [14]; 65.5 µM in [15]; 36.8 µM in experiment [9]; 36.2 µM in [10]. Moreover, the TGI is above 100 µM in [11] and 37.7 µM in [13].
Regarding `O=[N+]([O-])c1cccc(Nc2nc(Cl)nc(Cl)n2)c1`, the TGI in [1], in experiment [2], in [3], in experiment [4], in [6] and in experiment [7] was above 100 µM in each case. For the same compound, the TGI in experiment [8], in experiment [14], in [15], in [9], in [10] and in experiment [11] was above 100 µM each time. For the same compound, the TGI in experiment [12] is above 100 µM.
As for `CC(C)(C)OC(=O)N1CCCC1C(=O)NC(c1ccccc1)c1ccccc1` (stereo unspecified), the TGI in experiment [1], in experiment [2], in experiment [3], in [5], in [6] and in experiment [16] was above 100 µM in each case. The TGI in experiment [7], in [8], in experiment [17], in [18], in experiment [14] and in experiment [15] was above 100 µM throughout. For the same compound, the TGI in [9], in experiment [10], in experiment [19], in [20], in [11] and in experiment [12] was above 100 µM throughout. Also, in experiment [13], the TGI was above 100 µM.
As to `O=C(NCCNCCNC(=O)c1cc(-c2ccccc2)nc2ccccc12)c1cc(-c2ccccc2)nc2ccccc12`, the TGI was 3.18 µM in [1]; 5.73 µM in experiment [2]; 3.99 µM in [3]; 7.25 µM in [5]; 5.77 µM in [6]; 8.88 µM in experiment [16]. The TGI in [7] was found to be 6.97 µM; in experiment [8] it was 7.59 µM; in experiment [17], 6.56 µM; in experiment [18], 6.86 µM; in [14], 5.37 µM; in experiment [15], 3.28 µM. For the same compound, the TGI in experiment [9] was 9.55 µM; in experiment [10], above 100 µM; in experiment [19] it was 7.32 µM; in [20], 3.34 µM; in [11] it was 2.97 µM; in [12], 3.25 µM. In addition, the TGI in experiment [13] is 3.56 µM.
Turning to `COc1ccc2[nH]c3c(c2c1)[C@H]1CCC(C(C)(C)C)C[C@H]1[C@H]1C(=O)N(c2ccccc2)C(=O)[C@@H]31` (stereo partly specified), the TGI in experiment [1] is above 100 µM; in experiment [2], above 58.9 µM; in experiment [3] it was above 91.5 µM; in experiment [4], above 100 µM; in experiment [5] it was above 100 µM; in [6], above 100 µM. The TGI in [7] was above 49.5 µM; in [8], above 44.5 µM; in [15], above 42.5 µM; in [9], above 48.2 µM; in [10], above 52 µM; in [11], above 53.6 µM. Further, the TGI in experiment [12] was above 100 µM; in experiment [13], 26.5 µM.
As to `COC(=O)/C=C/[C@@H]1[C@H](C)N1S(=O)(=O)c1ccc(C)cc1` (stereo partly specified), the TGI in [1], in [2], in experiment [3], in experiment [5], in experiment [6] and in experiment [16] was above 100 µM throughout. Moreover, the TGI in [7], in experiment [8], in experiment [17], in experiment [18], in experiment [14] and in [15] was above 100 µM in each case. For the same compound, the TGI in [9], in [10], in experiment [19], in [20], in experiment [11] and in experiment [12] was above 100 µM in each case. This compound returned a TGI in [13] above 100 µM.
With `CN=c1sc2nc(C#N)c(C#N)nc2n1C`, the TGI in experiment [1] was 35.4 µM; in [2] it was 72.1 µM; in experiment [3], above 60 µM; in experiment [5], 53.4 µM; in experiment [6], 40.6 µM; in [16], above 100 µM. In addition, the TGI in experiment [7] is 31.5 µM; in [8] it was above 100 µM; in experiment [17], above 85.4 µM; in experiment [18], above 100 µM; in experiment [14], above 79.6 µM; in [15], 45.5 µM. Moreover, the TGI was above 94.7 µM in experiment [9]; above 100 µM in experiment [10]; above 80.7 µM in experiment [19]; 52.1 µM in [20]; 35.7 µM in [11]; 36.2 µM in experiment [12]. This compound also returned a TGI in experiment [13] of 40.5 µM.

The record behind these values is PubChem BioAssay (NCI).
